From patent US20170190671A1, “BIS(ARYL)CATECHOL DERIVATIVES AS HERBICIDES” (E I DU PONT DE NEMOURS AND COMPANY, priority 2014, published 2017)

Assays:
Format in all cases: in vivo
[1] = tested on: Italian ryegrass (Lolium multiflorum); experiment: Test C preemergence; settings: Lolium multiflorum, pre-emergence, 336 h, scale 0 to 100, read-out: Plant response rating, Ryegrass, Italian
Text: (§1) Seeds of plant species selected from blackgrass (Alopecurus myosuroides), Italian ryegrass (Lolium multiflorum), winter wheat (Triticum aestivum), galium (catchweed bedstraw, Galium aparine), corn (Zea mays), large (Lg) crabgrass (Digitaria sanguinalis), giant foxtail (Setaria faberii), johnsongrass (Sorghum halepense), lambsquarters (Chenopodium album), morningglory (Ipomoea coccinea), yellow nutsedge (Cyperus esculentus), pigweed (Amaranthus retroflexus), ragweed (common ragweed, Ambrosia elatior), soybean (Glycine max), barnyardgrass (Echinochloa crus-galli), oilseed rape (Brassica napus), waterhemp (common waterhemp, Amaranthus rudis), and velvetleaf (Abutilon theophrasti) were planted into a blend of loam soil and sand and treated preemergence with test chemicals formulated in a non-phytotoxic solvent mixture which included a surfactant.
(§2) At the same time, plants selected from these crop and weed species and also chickweed (common chickweed, Stellaria media), kochia (Kochia scoparia), and wild oat (Avena fatua), were planted in pots containing Redi-Earth® planting medium (Scotts Company, 14111 Scottslawn Road, Marysville, Ohio 43041) comprising spaghnum peat moss, vermiculite, wetting agent and starter nutrients and treated with postemergence applications of test chemicals formulated in the same manner. Plants ranged in height from 2 to 18 cm (1- to 4-leaf stage) for postemergence treatments. Treated plants and controls were maintained in a greenhouse for 13 to 15 days, after which time all species were compared to controls and visually evaluated. Plant response ratings, summarized in Table C, are based on a scale of 0 to 100 where 0 is no effect and 100 is complete control. A dash (-) response means no test result.

[2] = tested on: waterhemp (common waterhemp, Amaranthus rudis); experiment: Test C preemergence; settings: Amaranthus tuberculatus, pre-emergence, scale 0 to 100, read-out: Plant response rating, Waterhemp
Text: as §1, §2

[3] = tested on: sedge, umbrella (small-flower umbrella sedge, Cyperus difformis); experiment: Test B flooded paddy; settings: Cyperus difformis, 336 h; 250 g ai/ha, Flood, 13 to 15 days, scale 0 (no effect) to 100 (complete control); read-out: Plant response rating, Sedge, Umbrella
Procedure, shortened: (§3)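 Visual injury ratings against untreated controls, taken 13 to 15 days after compound was added to paddy water standing 3 cm above the soil.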

[4] = tested on: ducksalad (Heteranthera limosa); experiment: Test B flooded paddy; settings: Heteranthera limosa, 336 h; 250 g ai/ha, Flood, 13 to 15 days, scale 0 (no effect) to 100 (complete control); read-out: Plant response rating, Ducksalad
Procedure, shortened: as §3

[5] = tested on: barnyardgrass (Echinochloa crus-galli); experiment: Test B flooded paddy; settings: Echinochloa crus-galli, 336 h; 250 g ai/ha, Flood, 13 to 15 days, scale 0 (no effect) to 100 (complete control); read-out: Plant response rating, Barnyardgrass
Procedure, shortened: as §3

rice (Oryza sativa) = experiment: Test B flooded paddy; settings: Oryza sativa, 336 h; 250 g ai/ha, Flood, 13 to 15 days, scale 0 (no effect) to 100 (complete control); read-out: Plant response rating, Rice
Procedure, shortened: as §3

[6] = tested on: wheat (Triticum aestivum); experiment: Test A postemergence; settings: Triticum aestivum, post-emergence, 240 h, 0 to 100 scale, read-out: Plant response rating, Wheat
Procedure, shortened: (§4)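 Scoring: eye-based comparison with untreated controls, 0 for no effect through 100 for complete control, at about day 10. Treatments: directed soil spray preemergence; foliar spray postemergence on 2–10 cm plants at the one- to two-leaf stage. Medium: loam soil with sand.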

[7] = tested on: Italian ryegrass (Lolium multiflorum); experiment: Test A postemergence; settings: Lolium multiflorum, post-emergence, 240 h, 0 to 100 scale, read-out: Plant response rating, Ryegrass, Italian
Procedure, shortened: as §4

[8] = tested on: pigweed (Amaranthus retroflexus); experiment: Test A postemergence; settings: Amaranthus retroflexus, post-emergence, 240 h, 0 to 100 scale, read-out: Plant response rating, Pigweed
Procedure, shortened: as §4

kochia (Kochia scoparia) [9] = experiment: Test A postemergence; settings: Bassia scoparia, post-emergence, 240 h, 0 to 100 scale, read-out: Plant response rating, Kochia
Procedure, shortened: as §4

[10] = tested on: galium (catchweed bedstraw, Galium aparine); experiment: Test A postemergence; settings: Galium, post-emergence, 240 h, 0 to 100 scale, read-out: Plant response rating, Galium
Procedure, shortened: as §4

[11] = tested on: blackgrass (Alopecurus myosuroides); experiment: Test A postemergence; settings: Alopecurus myosuroides, post-emergence, 240 h, 0 to 100 scale, read-out: Plant response rating, Blackgrass
Procedure, shortened: as §4

corn (Zea mays) = experiment: Test A postemergence; settings: Zea mays, post-emergence, 240 h, 0 to 100 scale
Procedure, shortened: as §4

[12] = tested on: giant foxtail (Setaria faberii); experiment: Test A postemergence; settings: Setaria faberi, post-emergence, 240 h, 0 to 100 scale, read-out: Plant response rating, Foxtail, Giant
Procedure, shortened: as §4

[13] = tested on: barnyardgrass (Echinochloa crus-galli); experiment: Test A postemergence; settings: Echinochloa crus-galli, post-emergence, 240 h, 0 to 100 scale, read-out: Plant response rating, Barnyardgrass
Procedure, shortened: as §4

[14] = tested on: ragweed (common ragweed, Ambrosia elatior); experiment: Test A postemergence; settings: Ambrosia artemisiifolia, post-emergence, 240 h, 0 to 100 scale, read-out: Plant response rating, Ragweed
Procedure, shortened: as §4

[15] = tested on: Italian ryegrass (Lolium multiflorum); experiment: Test A preemergence; settings: Lolium multiflorum, pre-emergence, 240 h, 0 to 100 scale, read-out: Plant response rating, Ryegrass, Italian
Procedure, shortened: as §4

[16] = tested on: pigweed (Amaranthus retroflexus); experiment: Test A preemergence; settings: Amaranthus retroflexus, pre-emergence, 240 h, 0 to 100 scale, read-out: Plant response rating, Pigweed
Procedure, shortened: as §4

kochia (Kochia scoparia) [17] = experiment: Test A preemergence; settings: Bassia scoparia, pre-emergence, 240 h, 0 to 100 scale, read-out: Plant response rating, Kochia
Procedure, shortened: as §4

[18] = tested on: giant foxtail (Setaria faberii); experiment: Test A preemergence; settings: Setaria faberi, pre-emergence, 240 h, 0 to 100 scale, read-out: Plant response rating, Foxtail, Giant
Procedure, shortened: as §4

[19] = tested on: barnyardgrass (Echinochloa crus-galli); experiment: Test A preemergence; settings: Echinochloa crus-galli, pre-emergence, 240 h, 0 to 100 scale, read-out: Plant response rating, Barnyardgrass
Procedure, shortened: as §4

[20] = tested on: ragweed (common ragweed, Ambrosia elatior); experiment: Test A preemergence; settings: Ambrosia artemisiifolia, pre-emergence, 240 h, 0 to 100 scale, read-out: Plant response rating, Ragweed
Procedure, shortened: as §4

## N#Cc1cccc(Oc2ncc(Cl)cn2)c1Oc1ncc(Br)cn1 [Compound 4, 2-[(5-bromo-2-pyrimidinyl)oxy]-3-[(5-chloro-2-pyrimidinyl)oxy]benzonitrile]
[1]; 31 g ai/ha, preemergence
  pest or weed control at 31 g/ha: 5%
[1]; 62 g ai/ha, preemergence
  pest or weed control at 62 g/ha: 45%
[1]; 125 g ai/ha, preemergence
  pest or weed control at 125 g/ha: 70%
[1]; Preemergence, 16 g ai/ha
  pest or weed control at 16 g/ha: 0%
[2]; 31 g ai/ha, preemergence
  pest or weed control at 31 g/ha: 100%
[2]; 62 g ai/ha, preemergence
  pest or weed control at 62 g/ha: 100%
[2]; 125 g ai/ha, preemergence
  pest or weed control at 125 g/ha: 100%
[2]; Preemergence, 16 g ai/ha
  pest or weed control at 16 g/ha: 45%
[3]
  pest or weed control at 250 g/ha: 80%
[4]
  pest or weed control at 250 g/ha: 95%
[5]
  pest or weed control at 250 g/ha: 0%
Rice (Oryza sativa)
  plant injury at 250 g/ha: 0%
[6]; 125 g ai/ha
  plant injury at 125 g/ha: 50%
[6]; 500 g ai/ha
  plant injury at 500 g/ha: 100%
[7]; 125 g ai/ha
  pest or weed control at 125 g/ha: 100%
[7]; 500 g ai/ha
  pest or weed control at 500 g/ha: 100%
[8]; 125 g ai/ha
  pest or weed control at 125 g/ha: 100%
[8]; 500 g ai/ha
  pest or weed control at 500 g/ha: 100%
Kochia (Kochia scoparia) [9]; 125 g ai/ha
  pest or weed control at 125 g/ha: 100%
Kochia (Kochia scoparia) [9]; 500 g ai/ha
  pest or weed control at 500 g/ha: 100%
[10]; 125 g ai/ha
  pest or weed control at 125 g/ha: 100%
[10]; 500 g ai/ha
  pest or weed control at 500 g/ha: 100%
[11]; 125 g ai/ha
  pest or weed control at 125 g/ha: 100%
[11]; 500 g ai/ha
  pest or weed control at 500 g/ha: 100%
Corn (Zea mays); 125 g ai/ha
  Corn plant response rating (crop injury, 0 = no effect, 100 = complete kill) at 125 g/ha: 80%
Corn (Zea mays); 500 g ai/ha
  Corn plant response rating (crop injury, 0 = no effect, 100 = complete kill) at 500 g/ha: 100%
[12]; 125 g ai/ha
  pest or weed control at 125 g/ha: 100%
[12]; 500 g ai/ha
  pest or weed control at 500 g/ha: 100%
[13]; 125 g ai/ha
  pest or weed control at 125 g/ha: 100%
[13]; 500 g ai/ha
  pest or weed control at 500 g/ha: 100%
[14]; 125 g ai/ha
  pest or weed control at 125 g/ha: 100%
[14]; 500 g ai/ha
  pest or weed control at 500 g/ha: 100%
[15]; 125 g ai/ha
  pest or weed control at 125 g/ha: 20%
[15]; 500 g ai/ha
  pest or weed control at 500 g/ha: 100%
[16]; 125 g ai/ha
  pest or weed control at 125 g/ha: 100%
[16]; 500 g ai/ha
  pest or weed control at 500 g/ha: 100%
Kochia (Kochia scoparia) [17]; 125 g ai/ha
  pest or weed control at 125 g/ha: 90%
Kochia (Kochia scoparia) [17]; 500 g ai/ha
  pest or weed control at 500 g/ha: 100%
[18]; 125 g ai/ha
  pest or weed control at 125 g/ha: 100%
[18]; 500 g ai/ha
  pest or weed control at 500 g/ha: 100%
[19]; 125 g ai/ha
  pest or weed control at 125 g/ha: 70%
[19]; 500 g ai/ha
  pest or weed control at 500 g/ha: 100%
[20]; 125 g ai/ha
  pest or weed control at 125 g/ha: 80%
[20]; 500 g ai/ha
  pest or weed control at 500 g/ha: 100%
